Data published in ChEMBL document CHEMBL1147218, “New bioactive diterpene polyesters from Euphorbia decipiens” (J Nat Prod, 2003).

Experiments:
Saccharomyces cerevisiae [1] = assay: DNA damaging activity against wild type (Rad+) yeast assessed as drug level required to produce 12 mm zone of inhibition; type: functional
Saccharomyces cerevisiae [2] = assay: DNA damaging activity against DNA repair-deficient RS 322YK (rad 52Y) yeast assessed as drug level required to produce 12 mm zone of inhibition; type: functional
Prolyl endopeptidase = Prolyl endopeptidase (Elizabethkingia meningoseptica, UniProt P27028); assay: Inhibition of Flavobacterium meningosepticum […]
Prolyl endopeptidase, sequence (P27028 21-705 limits assumed): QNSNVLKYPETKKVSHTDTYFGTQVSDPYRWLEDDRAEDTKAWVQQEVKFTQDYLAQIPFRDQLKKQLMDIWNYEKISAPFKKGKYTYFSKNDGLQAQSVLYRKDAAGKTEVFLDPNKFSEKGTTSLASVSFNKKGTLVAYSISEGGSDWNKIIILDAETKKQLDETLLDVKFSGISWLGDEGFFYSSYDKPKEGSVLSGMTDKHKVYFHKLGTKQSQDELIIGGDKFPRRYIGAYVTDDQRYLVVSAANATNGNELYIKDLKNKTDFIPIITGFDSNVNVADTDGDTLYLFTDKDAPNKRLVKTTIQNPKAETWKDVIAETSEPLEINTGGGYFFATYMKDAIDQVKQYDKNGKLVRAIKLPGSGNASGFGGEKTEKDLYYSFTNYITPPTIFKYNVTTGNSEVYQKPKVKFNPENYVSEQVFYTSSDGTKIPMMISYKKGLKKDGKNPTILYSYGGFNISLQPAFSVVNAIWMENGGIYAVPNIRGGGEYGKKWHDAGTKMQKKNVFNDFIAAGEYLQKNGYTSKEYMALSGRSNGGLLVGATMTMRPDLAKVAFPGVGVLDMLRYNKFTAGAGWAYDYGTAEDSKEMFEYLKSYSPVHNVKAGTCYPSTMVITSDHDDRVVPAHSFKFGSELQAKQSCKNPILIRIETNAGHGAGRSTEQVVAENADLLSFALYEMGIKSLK

Row | IC50 (Prolyl endopeptidase) [µM] | SMILES | IC12 (Saccharomyces cerevisiae [1]) [µg/mL] | IC12 (Saccharomyces cerevisiae [2]) [µg/mL]
1 |  | CC(=O)OC[C@@]12[C@H](OC(C)=O)[C@H]3[C@@H](OC(C)=O)[C@@H](C)C[C@]3(OC(C)=O)C(=O)[C@@]3(C)OC(C)(C)[C@@H](C=C[C@H]1OC(=O)c1ccccc1)[C@H]23 | 1090 | 750
2 | 16.9 | CC(=O)OC[C@@]12[C@H](OC(C)=O)[C@H]3[C@@H](OC(C)=O)[C@@H](C)C[C@]3(O)C(=O)[C@@]3(C)OC(C)(C)[C@@H](C=C[C@H]1OC(=O)c1ccccc1)[C@H]23 |  | 
3 |  | CC[C@@]1(O)C(=O)OCc2c1cc1n(c2=O)Cc2cc3ccccc3nc2-1 [CAMPTOTHECIN] | 75 | 12
